Experiments:
RBP4 = RBP4 (Homo sapiens, UniProt P02753); conditions: cited from earlier work
RBP4-TTR interaction = conditions: cited from earlier work
serum RBP4 and retinol = conditions: in vivo; cited from earlier work
Abca4−/− mice = conditions: animal model of excessive bisretinoid accumulation; cited from earlier work
[1] = system: retinal pigment epithelium cells; conditions: many cell types, including the retinal pigment epithelium cells; cited from earlier work
[2] = cited from earlier work

Row | Compound | melting point | further results
1 | O=C(c1nc2ncccc2[nH]1)N1CCC(c2ccccc2C(F)(F)F)CC1 [Example 71, (1H-Imidazo[4,5-b]pyridin-2-yl)(4-(2-(trifluoromethyl)phenyl)piperidin-1-yl)methanone] | 249 to 251 °C | 
2 | O=C(c1cc2ncc(-n3ccnc3)cc2[nH]1)N1CCC(c2ccccc2C(F)(F)F)CC1 [Example 75, (6-(1H-Imidazol-1-yl)-1H-pyrrolo[3,2-b]pyridin-2-yl)(4-(2-(trifluoromethyl)phenyl)piperidin-1-yl)methanone] | > 270 °C | 
3 | O=C(c1cc2ncc(N3CCOCC3)cc2[nH]1)N1CCC(c2ccccc2C(F)(F)F)CC1 [Example 76, (6-Morpholino-1H-pyrrolo[3,2-b]pyridin-2-yl)(4-(2-(trifluoromethyl)phenyl)piperidin-1-yl)methanone] | 268 to 272 °C (dec.) | 
4 | O=C(c1ccc2nccn2n1)N1CCC(c2ccccc2C(F)(F)F)CC1 [Example 81, Imidazo[1,2-b]pyridazin-6-yl(4-(2-(trifluoromethyl)phenyl)piperidin-1-yl)methanone] | 152 to 155 °C | 
5 | O=C(c1cccnn1)N1CCC(c2ccccc2C(F)(F)F)CC1 [Example 82, Pyridazin-3-yl(4-(2-(trifluoromethyl)phenyl)piperidin-1-yl)methanone] | 125 to 127 °C | 
6 | O=C(c1cnccn1)N1CCC(c2ccccc2C(F)(F)F)CC1 [Example 87, Pyrazin-2-yl(4-(2-(trifluoromethyl)phenyl)piperidin-1-yl)methanone] | 109 to 111 °C | 
7 | Cc1nc2ccc(Cl)nn2c1C(=O)N1CCC(c2ccccc2C(F)(F)F)CC1 [Example 89, (6-Chloro-2-methylimidazol[1,2-b]pyridazin-3-yl)(4-(2-(trifluoromethyl)phenyl)piperidin-1-yl)methanone] | 147 to 150 °C | 
8 | CC(=O)N1CCCC1C(=O)N1CCC(c2ccccc2C(C)(C)C)CC1 (stereo not shown) [Example 97, 1-(2-(4-(2-(Tert-butyl)phenyl)piperidine-1-carbonyl)pyrrolidin-1-yl)ethanone] | 50 to 60 °C | 
9 | CC(C)(C)c1ccccc1C1CCN(C(=O)[C@H]2C[C@@H](O)CN2)CC1 [Example 98, (4-(2-(Tert-butyl)phenyl)piperidin-1-yl)((2R,4R)-4-hydroxypyrrolidin-2-yl)methanone] | 65 to 75 °C | 
10 | CC(C)(C)c1ccccc1C1CCN(C(=O)C2CCCS2(=O)=O)CC1 (stereo not shown) [Example 100, (4-(2-(tert-butyl)phenyl)piperidin-1-yl)(1,1-dioxidotetrahydrothiophen-2-yl)methanone] | 80 to 84 °C | 
11 | NS(=O)(=O)Oc1ccccc1CC(=O)N1CCC(c2ccccc2C(F)(F)F)CC1 [Example 102, 2-(2-Oxo-2-(4-(2-(trifluoromethyl)phenyl)piperidin-1-yl)ethyl)phenylsulfamate] | 170 to 173 °C | 
12 | CC1=C(/C=C/C(C)=C/C=C/C(C)=C/C(=O)Nc2ccc(O)cc2)C(C)(C)CCC1 [fenretinide, N-(4-hydroxy-phenyl)retinamide] |  | binding to RBP4 (RBP4): bind to RBP4; displacement of all-trans retinol from RBP4 (RBP4): displace all-trans retinol from RBP4; disruption of RBP4-TTR interaction (RBP4-TTR interaction): disrupt the RBP4-TTR interaction; ocular all-trans retinol uptake (serum RBP4 and retinol): inhibit ocular all-trans retinol uptake; serum RBP4 and retinol (serum RBP4 and retinol): reduce serum RBP4 and retinol; visual cycle (serum RBP4 and retinol): slow down the visual cycle; A2E production (Abca4−/− mice): reduced A2E production; induction of apoptosis [1]: extremely active inducer of apoptosis; formation of hemangiosarcomas ([2]; mice): stimulate formation of hemangiosarcomas; selectivity and toxicity ([2]; mouse, in vivo): non-selective and toxic; teratogenicity ([2]; mouse, in vivo): teratogenic

The next lines start with results.

Row | melting point | Compound | further results
13 | 200 to 203 °C | CC(C)CC(=O)N1Cc2[nH]nc(C(=O)N3CCC(c4ccccc4C(F)(F)F)CC3)c2C1 [Example 55, 3-Methyl-1-(3-(4-(2-(trifluoromethyl)phenyl)piperidine-1-carbonyl)pyrrolo[3,4-c]pyrazol-5(1H,4H,6H)-yl)butan-1-one] | 
14 | 229 to 232 °C | CC(C)(C)C(=O)N1Cc2[nH]nc(C(=O)N3CCC(c4ccccc4C(F)(F)F)CC3)c2C1 [Example 56, 2,2-Dimethyl-1-(3-(4-(2-(trifluoromethyl)phenyl)piperidine-1-carbonyl)pyrrolo[3,4-c]pyrazol-5(1H,4H,6H)-yl)propan-1-one] | 
15 | 254 to 258 °C | Cc1cnc2cc(C(=O)N3CCC(c4ccccc4C(F)(F)F)CC3)[nH]c2c1 [Example 70, (6-Methyl-1H-pyrrolo[3,2-b]pyridin-2-yl)(4-(2-(trifluoromethyl)phenyl)piperidin-1-yl)methanone] | 
16 | 159 to 163 °C | Cn1c(C(=O)N2CCC(c3ccccc3C(F)(F)F)CC2)cc2ncccc21 [Example 74, (1-Methyl-1H-pyrrolo[3,2-b]pyridin-2-yl)(4-(2-(trifluoromethyl)phenyl)piperidin-1-yl)methanone] | 
17 | 258 to 261 °C | O=C(c1cc2ncc(Cl)cc2[nH]1)N1CCC(c2ccccc2C(F)(F)F)CC1 [Example 77, (6-Chloro-1H-pyrrolo[3,2-b]pyridin-2-yl)(4-(2-(trifluoromethyl)phenyl)piperidin-1-yl)methanone] | 
18 | 159 to 162 °C | O=C(c1ccnnc1)N1CCC(c2ccccc2C(F)(F)F)CC1 [Example 80, Pyridazin-4-yl(4-(2-(trifluoromethyl)phenyl)piperidin-1-yl)methanone] | 
19 | 170 to 172 °C | O=C(c1ccc(Cl)nn1)N1CCC(c2ccccc2C(F)(F)F)CC1 [Example 83, (6-Chloropyridazin-3-yl)(4-(2-(trifluoromethyl)phenyl)piperidin-1-yl)methanone] | 
20 | 141 to 143 °C | Cc1nnsc1C(=O)N1CCC(c2ccccc2C(F)(F)F)CC1 [Example 84, (4-Methyl-1,2,3-thiadiazol-5-yl)(4-(2-(trifluoromethyl)phenyl)piperidin-1-yl)methanone] | 
21 | 144 to 148 °C | Cc1ccc(C(=O)N2CCC(c3ccccc3C(F)(F)F)CC2)nn1 [Example 85, (6-Methylpyridazin-3-yl)(4-(2-(trifluoromethyl)phenyl)piperidin-1-yl)methanone] | 
22 | 122 to 125 °C | COc1ccc(C(=O)N2CCC(c3ccccc3C(F)(F)F)CC2)nn1 [Example 86, (6-Methoxypyridazin-3-yl)(4-(2-(trifluoromethyl)phenyl)piperidin-1-yl)methanone] | 
23 | 235 to 239 °C (dec.) | O=C(c1cnn[nH]1)N1CCC(c2ccccc2C(F)(F)F)CC1 [Example 88, (1H-1,2,3-Triazol-5-yl)(4-(2-(trifluoromethyl)phenyl)piperidin-1-yl)methanone] | 
24 | 167 to 170 °C | O=C(c1ccn[nH]1)N1CCC(c2ccccc2C(F)(F)F)CC1 [Example 90, (1H-pyrazol-5-yl)(4-(2-(trifluoromethyl)phenyl)piperidin-1-yl)methanone] | 
25 | 188 to 190 °C | NC(=O)c1ccc(C(=O)N2CCC(c3ccccc3C(F)(F)F)CC2)cc1 [Example 92, 4-(4-(2-(Trifluoromethyl)phenyl)piperidine-1-carbonyl)benzamide] | 
26 | 192 to 194 °C | NC(=O)c1cccc(C(=O)N2CCC(c3ccccc3C(F)(F)F)CC2)c1 [Example 93, 3-(4-(2-(Trifluoromethyl)phenyl)piperidine-1-carbonyl)benzamide] | 
27 | 100 to 102 °C | CC1(C(=O)N2CCC(c3ccccc3C(F)(F)F)CC2)COC1 [Example 103, (3-Methyloxetan-3-yl)(4-(2-(trifluoromethyl)phenyl)piperidin-1-yl)methanone] | 
